Values of other authors in US11471437B2, “Compositions and methods for treating cannabinoid hyperemesis syndrome with a cannabinoid receptor antagonist” (Opiant Pharmaceuticals, Inc., priority 2019, dated 2022).

Experiments:
[1] = cited from earlier work
[2] = target: T1, CB1 receptor (Homo sapiens, UniProt P21554); details: cited from earlier work
[3] = target: T1, CB1 receptor; set-up: host or cells: human volunteers (in vivo); details: oral administration, normal volunteers; cited from earlier work
[4] = oral formulation for obesity and smoking cessation; cited from earlier work

T1 sequence (P21554 whole entry): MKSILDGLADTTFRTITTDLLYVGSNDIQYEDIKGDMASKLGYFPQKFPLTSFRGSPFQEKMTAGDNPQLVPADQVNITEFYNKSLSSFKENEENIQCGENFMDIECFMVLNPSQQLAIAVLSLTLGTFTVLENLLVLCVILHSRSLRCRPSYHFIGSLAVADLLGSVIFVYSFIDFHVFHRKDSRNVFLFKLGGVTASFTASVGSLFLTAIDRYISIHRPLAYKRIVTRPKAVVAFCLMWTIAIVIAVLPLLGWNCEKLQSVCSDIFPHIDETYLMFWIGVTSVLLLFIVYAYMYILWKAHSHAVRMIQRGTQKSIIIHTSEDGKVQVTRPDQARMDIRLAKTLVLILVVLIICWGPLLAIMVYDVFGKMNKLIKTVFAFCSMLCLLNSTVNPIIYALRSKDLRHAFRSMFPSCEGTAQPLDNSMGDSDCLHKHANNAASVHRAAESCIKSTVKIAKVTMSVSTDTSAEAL

| Compound | log P [1] | Potency and selectivity for CB1 [2] | Prevention (block) of pharmacological effects of smoked or inhaled THC [3] | Side effects [4] |
| --- | --- | --- | --- | --- |
| CS(=O)(=O)N(c1cc(F)cc(F)c1)C1CN(C(c2ccc(Cl)cc2)c2ccc(Cl)cc2)C1 (racemic) [drinabant, (±)-N-{1-[bis(4-chlorophenyl)methyl]-3-azetidinyl}-N-(3,5-difluorophenyl)methanesulfonamide] | high | potent and selective for CB1 | can prevent (that is, block) some of the pharmacological effects of smoked or inhaled THC | – |
| Cc1c(C(=O)NN2CCCCC2)nn(-c2ccc(Cl)cc2Cl)c1-c1ccc(Cl)cc1 [Rimonabant, 5-(4-chlorophenyl)-1-(2,4-dichloro-phenyl)-4-methyl-N-(piperidin-1-yl)-1H-pyrazole-3-carboxamide] | – | – | – | concerning side effects including psychiatric effects such as depression and mood alterations |
| CCc1c(C(=O)NN2CCCCC2)nn(-c2ccc(Cl)cc2Cl)c1-c1ccc(Br)cc1 [surinabant] | – | – | can prevent (that is, block) some of the pharmacological effects of smoked or inhaled THC | – |
